{"source": "patent US20240058265A1", "about": "“TREATMENT OF OCULAR DISEASES USING ENDOTHELIN RECEPTOR ANTAGONISTS” (Perfuse Therapeutics, Inc., priority 2021, published 2024)", "key": {"[1]": {"tested_on": "laser-induced glaucoma eye", "assay": "Laser-induced glaucoma non-human primate, intraocular pressure after topical administration", "type": "in vivo, rhesus macaque, Macaca Mulatta", "details": "single dose 50 μL topical 0.5% in each eye, 120 minutes", "method": "Non-human primates (rhesus macaque, Macaca Mulatta) were obtained for this study. One eye of each animal underwent induction of elevation of intraocular pressure (TOP) by repeated laser photocoagulation of the trabecular meshwork. Imaging sessions were repeated to monitor the optic nerve head (ONH) and retinal structural changes. A single dose of 0.5% Timolol or a single dose of 2 mg/mL Edonentan was topically administered to three non-human primates that have laser-induced glaucoma in their right eyes (OD) with 1-week wash-out in a randomized order."}, "[2]": {"assay": "Solubility of crystalline forms", "type": "physicochemical", "details": "room temperature, 24 hours", "method": "The solubility described herein can be measured using the following procedure: • ii. Solubility Analysis Protocol • 1. No less than 2.0 mg samples are weighed into lower chamber of whatman miniuniprep vials (GE Healthcare). 450 μL of buffer was added into each chamber. • 2. Filter pistons of miniuniprep vials are placed and compressed to the position of the liquid level to allow for contact of buffer and compound with the filter during incubation. • 3. The samples are vortexed for 2 minutes followed by incubation at room temperature (about 25±2° C.) for 24 hours with shaking at 500 rpm. • 4. Miniunipreps are compressed to prepare the filtrates for injection into HPLC system. All vials are inspected for visible undissolved material before filtering and for leakage after filtering. • 5. Dilute supernatant with buffer by a factor of 100 folds to make diluents which are analyzed with HPLC."}, "ET-1 induced vasospasm": {"tested_on": "ET-1 induced vasospasm", "assay": "Rabbit ET-1 induced vasospasm model, retinal blood flow (OCT-A, FA)", "type": "in vivo, rabbit (Oryctolagus cuniculus)", "method": "Adult, male Dutch-belted rabbits were given a 20 μl intravitreal injection (IVT) of 0.5 μg of ET-1 followed by a 20 μl intravitreal injection of 10-100 μg Edonentan given 30 min after the ET-1 administration. IOP, optical coherence tomography—angiography (OCT-A), and fluorescein angiograms (FA) were performed at pre-specified time points (30, 45, 60, and 75 min) following ET-1 and Edonentan administration to assess retinal blood flow changes induced by ET-1+/−Edonentan. […] To evaluate the effect of retinal blood flow following intravitreally administered endothelin-1 (ET-1) followed by the antagonist Edonentan in the rabbit, rabbits (Oryctolagus cuniculus) were given a 20 μL intravitreal injection of ET-1 in the left eye followed by a 20 μL intravitreal injection of Edonentan at 2 (or 3) different doses (e.g. 0.1 μg, 0.5 μg, 2.5 μg). The pulse ox, tonometry, optical coherence tomography angiography (OCTA), fluorescein angiography (FA) and retinal leakage scoring were performed for evaluation."}, "[3]": {"assay": "Slurry conversion of crystalline forms (relative thermodynamic stability)", "type": "physicochemical", "method": "In an alternate method, 150 mg of Edonentan (Form 3) was added to a mixture of isopropanol and water (1 mL and 2 mL, respectively). The resulting slurry was stirred at 15° C. for 48 hours and then filtered.\nIn an alternate method, 200 mg of Edonentan (Form 1) was added to a mixture of isopropanol and water (1.3 mL and 2.6 mL, respectively). The resulting solution was heated to 80° C. and stirred for 24 h, then cooled and filtered."}, "ETA receptor": {"target": "T1, ETA receptor (Homo sapiens, UniProt P25101)", "T1 sequence (P25101 21-427)": "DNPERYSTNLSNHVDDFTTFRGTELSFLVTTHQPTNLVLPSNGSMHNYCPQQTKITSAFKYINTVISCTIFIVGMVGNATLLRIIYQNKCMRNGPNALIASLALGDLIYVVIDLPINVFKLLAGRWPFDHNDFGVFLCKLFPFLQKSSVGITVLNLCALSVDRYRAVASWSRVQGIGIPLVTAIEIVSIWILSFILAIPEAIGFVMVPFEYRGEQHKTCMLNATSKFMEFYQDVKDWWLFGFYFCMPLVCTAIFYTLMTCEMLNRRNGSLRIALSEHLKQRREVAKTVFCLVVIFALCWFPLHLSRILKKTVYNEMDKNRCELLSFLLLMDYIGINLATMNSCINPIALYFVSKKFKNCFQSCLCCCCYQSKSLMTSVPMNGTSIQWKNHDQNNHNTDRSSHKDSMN", "assay": "Functional potency for ETA receptor", "type": "biochemical", "text": "(§1) In the above table, the physicochemical data, e.g., solubility, were obtained following standard protocols known in the field (see, e.g., Reis et al., Mini Rev Med Chem., 2010, 10(11):1071-6; Avdeef et al., Expert Opin Drug Metab Toxicol., 2005, 1(2):325-42; Bharate et al., Comb Chem High Throughput Screen., 2016, 19(6):461-9; and Jain et al., J Pharm Biomed Anal., 2013, 86:11-35.); and the biochemical data, i.e., potency for ETA/ETB, were obtained following the protocols known in the field (see, e.g., Kirkby et al., Br J Pharmacol., 2008, 153(6):1105-19; and Maguire et al., Br J Pharmacol., 2014, 171(24):5555-72.)."}, "[4]": {"assay": "Solubility (pH 2, pH 7, ethyl acetate)", "type": "physicochemical", "text": "as §1"}, "Stability in solid state": {"assay": "Stability in solid state", "type": "physicochemical", "details": "2 h@125° C.", "text": "as §1"}, "Permeability (PAMPA)": {"assay": "Permeability (PAMPA)", "type": "in vitro ADME", "text": "as §1"}, "elevated IOP rat eye": {"tested_on": "elevated IOP rat eye", "assay": "Morrison's rat model of glaucoma (RGC counts, PERG)", "type": "in vivo, Brown Norway rats", "details": "topical eye drops 100 μg per dose, five days a week, four weeks", "text": "Adult male and female retired breeder Brown Norway rats (approximate age groups of 8 to 11 months) were obtained from Envigo (Indianapolis, IN). Baseline IOP measurements and pattern electroretinogram (PERG) amplitudes were collected prior to the surgery for elevation of IOP (to ensure that the IOP and PERG amplitudes were in the expected range of values). IOP was elevated in one eye (left eye) of the rats, while the corresponding right eyes served as contralateral controls. The Morrison method to elevate IOP in rats was carried out by injection of 50 μL of hypertonic saline through the episcleral veins to sclerose the trabecular meshwork. IOP was measured twice a week throughout the entire duration of the experiment. […] After detecting an elevation of IOP for two consecutive days, topical administration of eye drops ([…] (100 μg,) per dose of the tested compounds in the IOP elevated eye) was commenced and carried out for five days a week for a total of four weeks. In the 4th week of treatment, PERG analysis was carried out and rats were sacrificed by an overdose of pentobarbital (fatal-Plus). Aqueous humor was collected from the rat eyes, frozen and shipped for analysis. Retinal flat mounts were prepared, immunostained with the RGC marker, Brn3a antibody and surviving RG-Cs were counted in two eccentricities (central and peripheral).\nFor this study, the Morrison's model was used to induce ocular hypertension in adult male retired breeder Brown Norway rats as previously described by. Morrison et al., (Morrison J C, Moore C G, Deppmeier L M, Gold B G, Meshul C K, Johnson E C. A rat model of chronic pressure-induced optic nerve damage. Exp Eye Res. 1997;64(1):85-96).\nThe immunostained retinal flat mounts were obtained to measure the retinal ganglion cell (RGC) counts. To obtain immunostained retinal flat mounts, the animals were euthanized after the treatments and then their eyes were enucleated. The eye cups were fixed overnight at 4° C. in 4% paraformaldehyde (PFA) and retinal flat mounts were prepared for collecting images. The retinal ganglion cell (RGC) counting was conducted using the images of immunostained retinal flat mounts. The images were uploaded to ImageJ, a photo editor designed for biology research (Rasband, 1997-2018) and the labeled retinal ganglion cells were counted manually in two eccentricities (central and peripheral).\nPattern ERG (PERG) was used to assess the RGC function. […] Briefly, PERG signals were acquired from a DTL-plus electrode placed on the lower part of the corneal surface and the PERG waves were analyzed using the EMWIN software (LKC). The difference between the amplitude of the major positive (P1) and negative (N2) waves were calculated to decipher the PERG amplitude."}, "[5]": {"assay": "Pharmacokinetics after topical or oral administration in the rat", "type": "in vivo, Brown Norway rats", "method": "After the administrations, the animals (N=2) were euthanized at different time points (e.g. 4 and 8 hours) and tissues were collected for analysis. List of tissues collected include plasma, retina/retinal pigment epithelium (RPE)/choroid, vitreous humor and aqueous humor."}, "ETA/ETB receptor": {"tested_on": "ETA/ETB receptor", "details": "cited from earlier work"}}, "note": "“And” between values parts separate entries of the source, which are not always exact repeats. Equal values may be shown once. Read-outs that look alike come from different tables or passages of the source. Where no end group is shown, it is not given here."}
{"molecule": "CC(C)(C)NC[C@H](O)COc1nsnc1N1CCOCC1", "note": "[Timolol, reference compound]", "values": [{"measurement": "IOP reduction from pre-dose to post-dose", "setting": "[1]; Control 1", "value": "about 20%"}, {"measurement": "IOP reduction from pre-dose to post-dose", "setting": "[1]; Control 2", "value": "about 30%"}]}
{"molecule": "Cc1onc(NS(=O)(=O)c2ccccc2-c2ccc(-c3ncco3)cc2CN(C)C(=O)CC(C)(C)C)c1C", "note": "[Form 3]", "values": [{"measurement": "Solubility pH 7.0 Phosphate Buffer", "setting": "[2]", "value": 251, "unit": "μg/mL"}]}
{"molecule": "Cc1onc(NS(=O)(=O)c2ccccc2-c2ccc(-c3ncco3)cc2CN(C)C(=O)CC(C)(C)C)c1C", "note": "[Form 1]", "values": [{"measurement": "Solubility pH 7.0 Phosphate Buffer", "setting": "[2]", "value": 264, "unit": "μg/mL"}]}
{"molecule": "ET-1: Endothelin-1, given intravitreally to induce vasospasm in rabbit retina (CSCSSLMDKECVYFCHLDIIW; ends and bridges not checked; cysteine pairing not given here; UniProt P05305 53-73, looked up) [reference compound]", "values": [{"measurement": "Vasoconstriction in the retinal vascular beds", "setting": "ET-1 induced vasospasm; 0.5 μg ET-1 IVT, within 45 min", "value": "induced a clear vasoconstriction"}]}
{"molecule": "Cc1onc(NS(=O)(=O)c2ccccc2-c2ccc(-c3ncco3)cc2CN(C)C(=O)CC(C)(C)C)c1C", "note": "[Form 2]", "values": [{"measurement": "Solubility pH 7.0 Phosphate Buffer", "setting": "[2]", "value": 35, "unit": "μg/mL"}]}
{"molecule": "Cc1onc(NS(=O)(=O)c2ccccc2-c2ccc(-c3ncco3)cc2CN(C)C(=O)CC(C)(C)C)c1C", "note": "[Form 4]", "values": [{"measurement": "Solubility pH 7.0 Phosphate Buffer", "setting": "[2]", "value": 138, "unit": "μg/mL"}, {"measurement": "Relative thermodynamic stability of crystalline form", "setting": "[3]; isopropanol and water, 80° C., 24 h", "value": "more thermodynamically stable than Form 1"}, {"measurement": "Relative thermodynamic stability of crystalline form", "setting": "[3]; slurry in isopropanol and water, 15° C., 48 hours", "value": "more thermodynamically stable than Form 3"}]}
{"molecule": "CCCCCS(=O)(=O)N(CCC)CCN1C[C@H](c2ccc3c(c2)OCO3)[C@@H](C(=O)O)[C@@H]1c1ccc(OC)c(F)c1", "note": "[A-182086, (2R,3R,4S)-4-(2H-1,3-benzodioxol-5-yl)-2-(3-fluoro-4-methoxyphenyl)-1-[2-(N-propylpentane-1-sulfonamido)ethyl]pyrrolidine-3-carboxylic acid]", "values": [{"measurement": "Functional potency for ETA and ETB receptors (rating)", "setting": "ETA receptor", "value": "High potency"}, {"measurement": "Specificity ETA vs ETB (rating)", "setting": "ETA receptor", "value": "Low specificity"}, {"measurement": "Solubility in Ethyl Acetate (rating)", "setting": "[4]; ethyl acetate", "value": "Good"}, {"measurement": "solubility", "setting": "[4]; ethyl acetate, organic solvent or mixture, read-out: Solubility in Ethyl Acetate", "value": "> 10600 µg/mL and > 18400 µM"}, {"measurement": "solubility", "setting": "[4]; pH 2, read-out: Solubility at pH 2", "value": 159.8, "unit": "µM"}, {"measurement": "Solubility at pH 7", "setting": "[4]; pH 7, amorphous form", "value": 298.4, "unit": "μM"}, {"measurement": "Stability in Solid State (verdict)", "setting": "Stability in solid state", "value": "unstable"}, {"measurement": "Stability in Solid State, remaining", "setting": "Stability in solid state", "value": "about 87% remaining/"}, {"measurement": "Permeability (rating)", "setting": "Permeability (PAMPA)", "value": "Mid-High"}, {"measurement": "Fluorescein dye velocity as an index of retinal blood flow", "setting": "ET-1 induced vasospasm; healthy rabbits, 0.5 μg ET-1 and 10 μg antagonist IVT (FIG. 3)", "value": "improved to control levels"}, {"measurement": "RGC function (PERG)", "setting": "elevated IOP rat eye", "value": "maintained RGC function"}, {"measurement": "RGC loss (RGC counts, retinal flat mounts)", "setting": "elevated IOP rat eye", "value": "prevented RGC loss"}, {"measurement": "Detection in retina/RPE/choroid after oral administration", "setting": "[5]; oral, 50 mg/kg", "value": "detectable"}, {"measurement": "Detection in retina/RPE/choroid, aqueous humor and vitreous humor", "setting": "[5]; topical eye drop 100 μg, 4 and 8 hours", "value": "detected"}, {"measurement": "ETA/ETB selectivity", "setting": "ETA/ETB receptor", "value": 4, "unit": "fold"}]}
